Experimental data taken from BigSolDB 2.1.

COc1cc2nc(Cl)nc(N)c2cc1OC
solubility (mole fraction)
Details | 273.15 K | 278.15 K | 283.15 K | 288.15 K | 293.15 K | 298.15 K | 303.15 K | 308.15 K | 313.15 K
in 1,4-dioxane | – | – | – | 0.000108 | 0.000129 | 0.000154 | 0.000183 | 0.000216 | 0.000253
in DMF | 0.00286 | 0.00336 | 0.00405 | 0.00495 | 0.00586 | 0.00687 | 0.00817 | 0.00979 | 0.0116
in NMP | 0.00572 | 0.00648 | 0.00746 | 0.00838 | 0.00932 | 0.0103 | 0.0113 | 0.0124 | 0.0137
in cyclohexanone | 0.00109 | 0.0013 | 0.00151 | 0.00177 | 0.00206 | 0.00241 | 0.0028 | 0.00324 | 0.00385
in ethanol | 0.000169 | 0.000206 | 0.000246 | 0.0003 | 0.000359 | 0.000423 | 0.000497 | 0.000585 | 0.000693
in ethyl acetate | 0.000278 | 0.000322 | 0.000375 | 0.000443 | 0.000522 | 0.000618 | 0.000725 | 0.000853 | 0.00101
in isobutanol | 0.000232 | 0.000272 | 0.000325 | 0.00038 | 0.000443 | 0.000514 | 0.000601 | 0.000706 | 0.000841
in isopropanol | 0.000142 | 0.000173 | 0.000209 | 0.000257 | 0.000306 | 0.000362 | 0.000434 | 0.000518 | 0.000622
in methanol | 0.000109 | 0.000139 | 0.000171 | 0.00021 | 0.000255 | 0.00031 | 0.000378 | 0.000458 | 0.000544
in n-butanol | 0.000252 | 0.000294 | 0.000345 | 0.000402 | 0.000467 | 0.000548 | 0.000648 | 0.000763 | 0.000929
in n-propanol | 0.000209 | 0.000245 | 0.00029 | 0.000343 | 0.000403 | 0.000471 | 0.000552 | 0.000657 | 0.000769
in toluene | 2e-06 | 2.7e-06 | 3.7e-06 | 5.1e-06 | 6.9e-06 | 9.2e-06 | 1.26e-05 | 1.66e-05 | 2.17e-05
